Experimental data: PMC12505902, “Inhibitors of trehalose-6-phosphate synthase activity in fungal pathogens compromise thermal tolerance pathways” (mBio, 2025)

Assays:
[1] = system: C. gattii (R265); assay: MIC dose-response assay in YPD; assay type: cell-based; conditions: Cryptococcus gattii
Protocol: (§1) Fig 4 4456dh inhibits the growth of Candida and Cryptococcus species. Two-fold dose response assays were performed against (A) C. albicans at 42°C and C. auris at 39°C, (B) C. glabrata at 42°C, and (C) C. neoformans, C. deneoformans, and C. gattii at 37°C. 4456dh was administered at the concentrations indicated. Cultures were grown in YPD at the listed temperatures for 48 hours for Candida species and 72 hours for Cryptococcus species. Experimental temperatures reflect the temperatures at which the fungi experience heat stress. Left: relative growth of treated samples was calculated by averaging technical triplicates and normalizing the OD600 of each treated well to the average OD600 of the untreated WT controls, after the absorbance due to the compound was subtracted. The MIC80 values, calculated based on the OD600 values, are indicated in the white text on each heat map. Right: representative spot assays show the ability of cells to grow after exposure to 4456dh and indicate fungicidal activity of 4456dh. TEXT PRINTED IN THE PICTURE: (A) 4456dh: C. albicans 42 °C: 13 mM; C. auris 39 °C: 7 mM | (B) 4456dh: C. glabrata 42 °C: 7.8 μM | (C) 4456dh: C. neoformans 37 °C: 7 mM; C. deneoformans 37 °C: 3 mM; C. gattii 37 °C: 7 mM DOUBTS OF THE COPYIST ABOUT THIS PICTURE: 4456dh, all panels: the picture prints no measure name with the white values on the heat maps, so each value is given only with its organism and temperature
(§2) We next tested the activity of 4456dh on Cryptococcus species at 37°C.
(§3) 123 hours. […]
(§4) 126 medium. Growth was plotted as a heat map using Excel.
(§5) 127 Wild-t y pe C. neoformans strains H99, wild-type C. deneoformans JEC21 and wild- t y pe C. gattii
(§6) 128 R265 were cultured overnight in YPD (yeast-peptone- dextrose) medium at 30 °C. Growth of the
(§7) 129 overnight cultures was quantified by measuring the OD600 and corrected for the background
(§8) 130 absorbance of the medium. Antifungal potency for 4456dh was assessed by minimum inhibitory
(§9) 131 concentration (MIC) dose-response assays performed under standard Clinical and Lab Standards
(§10) 132 Institute (CLSI) conditions. A volume of 125 µL from each cell suspension was dispensed into the
(§11) 133 wells of 96-well flat-bottom microtiter plates (Corning). An additional 25 µL of 4456dh from a series
(§12) 134 of dilutions from the 157 mM stock solution prepared in water was added to each well. Following […]
(§13) 137 replicates. Growth, as determined by a reading of absorbance at 600 nm, was normalized to
(§14) 138 untreated controls and was corrected for the absorbance of 4456dh in the YPD medium. […]
(§15) 139 minimum inhibitory concentration causing 80% growth reduction, or MIC80, was determined based […]
(§16) 157 Optical density (OD600) was determined with an Infinite PRO plate reader ( Tecan). […]

[2] = system: C. neoformans (H99); assay: MIC dose-response assay in YPD; assay type: cell-based; conditions: Cryptococcus neoformans
Protocol: as §1, §2, §3, §4, §5, §6, §7, §8, §9, §10, §11, §12, §13, §14, §15, §16

[3] = Supplemental Table 5, This publication

## Cn1cc(-c2csc(NC(=O)Cc3ccccn3)n2)cn1 [Compound 4456dh]
[1]; 37°C, YPD, 72 hours
  MIC80: 7 mM
[1]; [3]
  MIC80: 2780 µg/mL
[2]; 37°C, YPD, 72 hours
  MIC80: 7 mM
[2]; [3]
  MIC80: 2780 µg/mL
